Reference: patent US20230295152A1 (SENDA BIOSCIENCES, INC., priority 2019, published 2023)

Experiments:
[1] = Caco-2 Permeability Assay; type: in vitro ADME; conditions: human; for Papp A→B at 2 h, 1 μM: Caco-2, pH 7.4, apical to basolateral, read-out: Caco2 Papp (AB); for Papp B→A at 2 h, 1 μM: Caco-2, pH 7.4, basolateral to apical, read-out: Caco2 Papp (BA)
Procedure: Preparation of Caco-2 Cells: 50 μL and 25 mL of cell culture medium were added to each well of the Transwell insert and reservoir, respectively. The HTS transwell plates were incubated at 37° C., 5% CO2 for 1 hour before cell seeding. Caco-2 cells were diluted to 6.86×10^5 cells/mL with culture medium and 50 μL of cell suspension were dispensed into the filter well of the 96-well HTS Transwell plate. Cells were cultivated for 14-18 days in a cell culture incubator at 37° C., 5% CO2, 95% relative humidity. Cell culture medium was replaced every other day, beginning no later than 24 hours after initial plating.
Assessment of Cell Monolayer Integrity: Medium was removed from the reservoir and each Transwell insert and replaced with prewarmed fresh culture medium. Transepithelial electrical resistance (TEER) across the monolayer was measured using Millicell Epithelial Volt-Ohm measuring system (Millipore, USA). The Plate was returned to the incubator once the measurement was done. The TEER value was calculated according to the following equation:
TEER measurement(ohms)×Area of membrane(cm^2)=TEER value(ohm·cm^2)
TEER value should be greater than 230 ohm·cm^2, which indicates the well-qualified Caco-2 monolayer.
Preparation of Solutions: 2 mM stock solutions in DMSO of control compounds were prepared and diluted with HBSS (10 mM HEPES, pH 7.4) to get 10 μM working solution. 0.2 mM stock solutions of test compounds in DMSO were prepared and diluted with HBSS (10 mM HEPES, pH 7.4 with 0.5% BSA) to get 1 μM working solution. Metoprolol, erythromycin and cimetidine were used as control compounds.
Performing the Drug Transport Assay: The Caco-2 plate was removed from the incubator. The monolayer was washed twice with pre-warmed HBSS (10 mM HEPES, pH 7.4). The plate was incubated at 37° C. for 30 minutes. To determine the rate of drug transport in the apical to basolateral direction, 125 μL of the working solution was added to the Transwell insert (apical compartment). A 50 μL sample was transferred immediately from the apical compartment to 200 μL of acetonitrile containing IS (100 nM alprazolam, 200 nM Caffeine and 100 nM tolbutamide) in a new 96-well plate as the initial donor sample (A-B) and it was vortexed at 1000 rpm for 10 minutes. The wells in the receiver plate (basolateral compartment) were filled with 235 μL of transport buffer. To determine the rate of drug transport in the basolateral to apical direction, 285 μL of the working solution were added to the receiver plate wells (basolateral compartment). A 50 μL sample was transferred immediately from the basolateral compartment to 200 μL of acetonitrile containing IS (100 nM alprazolam, 200 nM Caffeine and 100 nM tolbutamide) in a new 96-well plate as the initial donor sample (B-A) and it was vortexed at 1000 rpm for 10 minutes. The Transwell insert (apical compartment) was filled with 75 μL of transport buffer. The apical to basolateral direction and the basolateral to apical direction need to be done at the same time. The plates were incubated at 37° C. for 2 hours. At the end of the incubation, 50 μL samples from donor sides (apical compartment for Ap→B1 flux, and basolateral compartment for B1→Ap) and receiver sides (basolateral compartment for Ap→B1 flux, and apical compartment for B1→Ap) were transferred to wells of a new 96-well plate, followed by the addition of 4 volume of acetonitrile containing IS (100 nM alprazolam, 200 nM Caffeine and 100 nM tolbutamide). Samples were vortexed for 10 minutes, 50 μL samples were transferred to wells of a new 96-well plate, followed by the addition of 50 μL Hepes and 200 μL IS. A11 samples were vortexed for 10 minutes, and then centrifuged at 3,220 g for 40 minutes. An aliquot of 150 μL of the supernatant was mixed with an appropriate volume of ultra-pure water before LC-MS/MS analysis.
Data analysis: All calculations were carried out using Microsoft Excel. Peak areas were determined from extracted ion chromatograms. […]

[2] = Plasma Protein Binding with Ultracentrifugation Method, human; type: in vitro ADME; conditions: human plasma, 1.0 μM; read-out: Human plasma protein binding (% bound)
Procedure: The frozen plasma (stored at −80° C.) was thawed in a 37° C. water bath, followed by centrifugation at 3,220 g for 10 minutes to remove clots. The supernatant was removed into a new tube as the spun plasma. The spun plasma was pre-warmed in a 37° C. water bath for 10 minutes. The stock solutions of test compounds were diluted to 200 μM in DMSO, and then spiked into the plasma. Duplicate samples were prepared. The final concentration of compound was 1.0 μM. The final concentration of organic solvent was 0.5%. Warfarin was used as positive control in the assay. 1.0 mL of the spiked plasma was transferred to a new balance ultracentrifuge tube. Samples were incubated at 37° C., 5% CO2 for 30 minutes. After incubation, the balance ultracentrifuge tubes were centrifuged at 600,000 g for 5.5 hours at 37° C. After centrifugation, 50 μL solution was removed from the center of the ultracentrifuge tubes as the post-ultracentrifugation samples, followed by the addition of 50 μL blank plasma and 400 μL quench solution (acetonitrile containing internal standards (IS, 100 nM Alprazolam, 500 nM Labetalol and 2 μM Ketoprofen)) to precipitate protein and release compounds. Samples were vortexed for 2 minutes, followed by centrifugation at 20,000 g for 15 minutes at room temperature. The supernatant was diluted with ultrapure water and then used for LC-MS/MS analysis. Stability samples was prepared by transferring 50 μL of the spiked plasma to 0.6 mL tubes and incubated at 37° C., 5% CO2 for 0.5 and 6 hours. After incubation, 50 μL PBS (100 mM, pH7.4) and 400 μL quench solution were added to the stability samples. And then stability samples were treated the same way as the post-ultracentrifugation samples. The supernatant was diluted with ultrapure water and then used for LC-MS/MS analysis. 0.5 hour time point samples were also used as no-spun controls. Time 0 samples were prepared by transferring 50 μL spiked plasma to 0.6 mL tubes containing 50 μL PBS, followed by the addition of 400 μL quench solution to precipitate protein and release compound. And then these samples were treated the same way as the post-ultracentrifugation samples. The supernatant was diluted with ultrapure water and then used for LC-MS/MS analysis.
Data Analysis: All calculations were carried out using Microsoft Excel. The concentrations of test compound in plasma samples and post-ultracentrifugation plasma was determined from peak areas. The percentages of test compound bound was calculated as follows: […]
“+++” indicates a % bound value less than 50, “++” indicates a % bound value between 50 and 75, and “+” indicates a % bound value above 75.

| Structure (SMILES) | Papp A→B at 2 h, 1 μM [1] [×10⁻⁶ cm/s] | Papp B→A at 2 h, 1 μM [1] [×10⁻⁶ cm/s] | fraction unbound at 30 min, 1 μM [2] |
| --- | --- | --- | --- |
| C[C@@H](CO)n1cnc2c(-c3cccnc3)nc(-c3ccc(OC(F)(F)F)cc3)cc2c1=O [Compound 22] | 2 to 10 | 2 to 10 | < 0.25 |
| Cc1ccc(-c2cc3c(=O)n([C@@H](C)CO)cnc3c(-c3cccnc3)n2)cc1 [Compound 17, (S)-3-(1-hydroxypropan-2-yl)-8-(pyridin-3-yl)-6-(p-tolyl)pyrido[3,4-d]pyrimidin-4(3H)-one] | > 10 | 2 to 10 | < 0.25 |
| C[C@@H](CO)n1cnc2c(-c3cccc(F)c3)nc(-c3ccc(Cl)cc3)cc2c1=O [Compound 7] | < 2 | < 2 | < 0.25 |
